ChEMBL document CHEMBL5512651, “Synthesis and biological evaluation of 4-imidazolidinone-containing compounds as potent inhibitors of the MDM2/p53 interaction” (Eur J Med Chem, 2024)
Activity calls are given as the source filed them. The rule behind the calls is not given here.

Experiments:
[1] = molecular target: Tumour suppressor p53/oncoprotein Mdm2 (Homo sapiens, UniProt Q00987); test: Inhibition of MDM2/p53 (unknown origin) interaction by fluorescence polarization assay; assay type: protein assay
Tumour suppressor p53/oncoprotein Mdm2, sequence (P04637 whole entry): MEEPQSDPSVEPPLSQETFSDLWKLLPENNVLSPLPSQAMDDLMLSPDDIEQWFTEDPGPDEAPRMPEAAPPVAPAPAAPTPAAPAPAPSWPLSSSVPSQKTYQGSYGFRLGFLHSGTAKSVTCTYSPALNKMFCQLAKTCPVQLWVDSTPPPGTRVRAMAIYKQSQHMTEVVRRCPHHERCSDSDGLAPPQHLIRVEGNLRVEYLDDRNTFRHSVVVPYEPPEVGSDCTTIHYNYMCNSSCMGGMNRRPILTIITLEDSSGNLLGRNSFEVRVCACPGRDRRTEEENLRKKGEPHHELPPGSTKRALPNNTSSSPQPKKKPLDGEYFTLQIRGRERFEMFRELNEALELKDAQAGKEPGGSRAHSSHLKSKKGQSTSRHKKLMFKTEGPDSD
Tumour suppressor p53/oncoprotein Mdm2, sequence (Q00987 whole entry): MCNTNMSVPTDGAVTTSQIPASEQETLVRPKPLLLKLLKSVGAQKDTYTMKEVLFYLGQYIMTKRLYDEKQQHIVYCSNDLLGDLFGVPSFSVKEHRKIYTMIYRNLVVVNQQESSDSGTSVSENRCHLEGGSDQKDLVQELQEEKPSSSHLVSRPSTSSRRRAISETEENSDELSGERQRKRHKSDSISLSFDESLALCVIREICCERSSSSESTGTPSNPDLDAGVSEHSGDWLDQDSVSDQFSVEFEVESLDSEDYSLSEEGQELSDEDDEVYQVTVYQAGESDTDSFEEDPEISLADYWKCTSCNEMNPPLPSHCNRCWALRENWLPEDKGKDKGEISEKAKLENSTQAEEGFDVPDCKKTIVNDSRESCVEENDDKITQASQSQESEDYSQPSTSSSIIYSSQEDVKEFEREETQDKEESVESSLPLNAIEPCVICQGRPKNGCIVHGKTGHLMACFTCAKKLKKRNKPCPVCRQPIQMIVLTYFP

[2] = molecular target: Cellular tumor antigen p53 (Homo sapiens) (UniProt P04637); test: Activation of p53 pathway in human MOLM-13 cells assessed as increase in p21 level incubated for 24 hrs by Western blot analysis; assay type: cell-based; conditions: filed as activator, dose 0.038-0.6 µM
Cellular tumor antigen p53 (Homo sapiens), sequence (P04637 whole entry, looked up): as the sequence (P04637 whole entry) above

[3] = molecular target: Cellular tumor antigen p53 (Homo sapiens) (UniProt P04637); test: Activation of p53 pathway in human MOLM-13 cells assessed as increase in MDM2 level incubated for 24 hrs by Western blot analysis; assay type: cell-based; conditions: filed as activator, dose 0.038-0.6 µM
MOLM-13 [4] = test: Induction of apoptosis in human MOLM-13 cells assessed as late apoptotic cells at 0.1 uM incubated for 24 hrs by Annexin V-FITC/PI staining based flow cytometry (reference value: 0.457 %); assay type: functional
MOLM-13 [5] = test: Induction of apoptosis in human MOLM-13 cells assessed as late apoptotic cells at 0.3 uM incubated for 24 hrs by Annexin V-FITC/PI staining based flow cytometry (reference value: 0.457 %); assay type: functional
MOLM-13 [6] = test: Induction of apoptosis in human MOLM-13 cells assessed as early apoptotic cells at 0.9 uM incubated for 24 hrs by Annexin V-FITC/PI staining based flow cytometry (reference value: 4.44 %); assay type: functional
MOLM-13 [7] = test: Induction of apoptosis in human MOLM-13 cells assessed as necrotic cells at 0.9 uM incubated for 24 hrs by Annexin V-FITC/PI staining based flow cytometry (reference value: 0.020 %); assay type: functional
MOLM-13 [8] = test: Induction of apoptosis in human MOLM-13 cells assessed as early apoptotic cells at 2.7 uM incubated for 24 hrs by Annexin V-FITC/PI staining based flow cytometry (reference value: 4.44 %); assay type: functional
MOLM-13 [9] = test: Induction of apoptosis in human MOLM-13 cells assessed as necrotic cells at 2.7 uM incubated for 24 hrs by Annexin V-FITC/PI staining based flow cytometry (reference value: 0.020 %); assay type: functional
MOLM-13 [10] = test: Induction of apoptosis in human MOLM-13 cells assessed as early apoptotic cells at 24.3 uM incubated for 24 hrs by Annexin V-FITC/PI staining based flow cytometry (reference value: 4.44 %); assay type: functional
[11] = Selectivity index, ratio of IC50 for HEK293 cells to IC50 for human HeLa cells; assay type: toxicity; conditions: HEK293 cells versus HeLa cells, read-out: Ratio IC50
[12] = Selectivity index, ratio of IC50 for HEK293 cells to IC50 for human SW480 cells
[13] = molecular target: Cellular tumor antigen p53 (Homo sapiens) (UniProt P04637); test: Activation of p53 pathway in human HCT-116 cells assessed as increase in p53 level at 1 uM incubated for 24 hrs by Western blot analysis; assay type: cell-based; conditions: filed as activator
[14] = molecular target: Cellular tumor antigen p53 (Homo sapiens) (UniProt P04637); test: Activation of p53 pathway in human A549 cells assessed as increase in p53 level at 1 uM incubated for 24 hrs by Western blot analysis; assay type: cell-based; conditions: filed as activator
[15] = molecular target: Cellular tumor antigen p53 (Homo sapiens) (UniProt P04637); test: Activation of p53 pathway in human HeLa cells assessed as increase in MDM2 level at 1 uM incubated for 24 hrs by Western blot analysis; assay type: cell-based
[16] = molecular target: Cellular tumor antigen p53 (Homo sapiens) (UniProt P04637); test: Activation of p53 pathway in human HeLa cells assessed as increase in p21 level at 1 uM incubated for 24 hrs by Western blot analysis; assay type: cell-based
MOLM-13 [17] = test: cells; conditions: Homo sapiens, MOLM-13, 48 h

In the case of COc1cc(C(=O)O)ccc1N1CN2[C@@H](CC(C)(C)C)[C@@]3(CNc4cc(Cl)ccc43)[C@@H](c3cccc(Cl)c3)[C@@H]2C1=O, the Ki [1] is reported as 400 pM, the Activity [2] is reported as “Dose-Dependent Effect” and the Activity [3] is reported as “Dose-Dependent Effect”. For the same molecule, the Activity (MOLM-13 [4]) was 0.797%, the Activity (MOLM-13 [5]) was 0.998% and the Activity (MOLM-13 [6]) was 48.8%. It also gave an Activity (MOLM-13 [7]) of 0.119%, an Activity (MOLM-13 [8]) of 68.6% and an Activity (MOLM-13 [9]) of 0.125%. For the same molecule, the Activity (MOLM-13 [10]) was 89.4%, the selectivity ratio [11] was 0.8 and the “Ratio IC50” value [12] was 1.6. The Activity [13] was “Active”, the Activity [14] was “Active” and the Activity [15] was “inactive”. For the same molecule, the Activity [16] was “inactive” and the IC50 (MOLM-13 [17]) was 800 pM.
